For data set [1] the following is noted: pooled analysis of 14 phase I-III studies, various doses; cited from earlier work.
A further data set has as its target T1, USP7core WT (Homo sapiens, UniProt Q93009).
T1 construct: 5 μM purified USP7core WT or active site cysteine mutant C223A were incubated
The data set can be described thus: Covalent adduct formation with purified USP7core WT by LC-MS. Particulars: 5 μM USP7core WT, 100 μM compound, room temperature, 4 h. The class given is binding. The procedure: (§1) FIG. 4 provides data showing an example of the covalent irreversible nature of disclosed USP7 inhibitors. 5 μM purified USP7core WT or active site cysteine mutant C223A were incubated with 100 μM Compound 5 or DMSO at room temperature for 4 hrs, and then the protein/compound reaction products were mixed with equal volume of 0.1% Trifluoroacetic acid (TFA) before LC-MS injection. The samples were analyzed by reverse-phase liquid chromatography coupled to UV and MS detection (Agilent, 6220 Accurate-Mass Time-of-Flight (TOF) LC/MS). […] 5μM purified USP7core WT or C223A were incubated with 100 μM of an exemplary compound of the present invention (for example, Compound 5) or DMSO at room temperature for 4 h, and then the protein/compound reaction products were mixed with equal volume of 0.1% Trifluoroacetic acid (TFA). The samples were analyzed by reverse-phase liquid chromatography coupled to UV and MS detection (Agilent, 6220 Accurate-Mass Time-of-Flight (TOF) LC/MS).

The next data set has as its target USP7core C223A (Homo sapiens, UniProt Q93009, C223A). The data set can be described thus: Covalent adduct formation with active site cysteine mutant USP7core C223A by LC-MS. The following applies: 5 μM USP7core C223A, 100 μM compound, room temperature, 4 h. The class given is binding. Here is the method:
as §1

The target of the next data set is T2, USP7 (Homo sapiens, UniProt Q93009).
T2 construct: USP7 was immuno-precipitated from lysates and USP7 activity measured; endogenous in cells; host or cells: Jurkat cells
T2 sequence (Q93009 whole entry): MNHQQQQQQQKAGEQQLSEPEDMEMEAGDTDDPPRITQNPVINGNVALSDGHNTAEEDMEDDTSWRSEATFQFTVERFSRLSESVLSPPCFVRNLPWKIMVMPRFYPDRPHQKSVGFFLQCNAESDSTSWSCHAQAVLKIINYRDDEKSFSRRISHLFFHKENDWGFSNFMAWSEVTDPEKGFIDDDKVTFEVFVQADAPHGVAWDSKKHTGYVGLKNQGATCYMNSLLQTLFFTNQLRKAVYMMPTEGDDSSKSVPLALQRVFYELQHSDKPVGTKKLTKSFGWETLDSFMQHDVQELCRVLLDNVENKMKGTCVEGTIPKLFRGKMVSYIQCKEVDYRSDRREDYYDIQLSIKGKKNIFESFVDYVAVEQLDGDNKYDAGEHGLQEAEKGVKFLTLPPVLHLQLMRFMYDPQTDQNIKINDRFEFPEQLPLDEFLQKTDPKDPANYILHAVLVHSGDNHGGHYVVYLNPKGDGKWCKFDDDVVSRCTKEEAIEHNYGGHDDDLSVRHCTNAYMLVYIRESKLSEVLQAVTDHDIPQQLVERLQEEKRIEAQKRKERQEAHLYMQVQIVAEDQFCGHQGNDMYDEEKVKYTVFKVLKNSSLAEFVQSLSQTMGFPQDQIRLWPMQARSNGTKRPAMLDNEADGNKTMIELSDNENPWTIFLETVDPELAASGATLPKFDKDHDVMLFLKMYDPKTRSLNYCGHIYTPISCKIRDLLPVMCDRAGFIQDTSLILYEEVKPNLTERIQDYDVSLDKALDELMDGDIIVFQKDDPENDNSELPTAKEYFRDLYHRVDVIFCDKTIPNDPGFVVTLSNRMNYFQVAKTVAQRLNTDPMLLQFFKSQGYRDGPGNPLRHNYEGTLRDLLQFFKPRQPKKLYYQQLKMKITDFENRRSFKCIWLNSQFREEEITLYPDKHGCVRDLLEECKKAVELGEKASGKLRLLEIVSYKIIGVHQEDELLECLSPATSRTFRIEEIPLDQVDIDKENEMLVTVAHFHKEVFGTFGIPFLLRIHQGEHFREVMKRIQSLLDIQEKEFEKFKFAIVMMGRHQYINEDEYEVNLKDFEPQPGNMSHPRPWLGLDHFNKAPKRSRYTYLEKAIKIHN
Kind of data set: DUB activity of USP7 immunoprecipitated from treated Jurkat cells (Ub-EKL assay), pulse treatment and washout. Type of data set: cell-based. The following applies: washed; for USP7 catalytic activity returned: Jurkat cells exposed 2 hours, immunoprecipitated USP7. Here is the method: FIG. 5A-FIG. 5C graphically illustrate examples of the disclosed USP7 inhibitors of the invention that are irreversible inhibitors. Jurkat cells were treated with 10 μM USP7i for indicated time period (FIG. 5A) or pulse treated for 2 h with 10 μM compound 5 (FIG. 5B), washed and incubated for the indicated time period followed by DUB activity measurement of immunoprecipitated USP7 as well as total cell lysate (FIG. 5C) using Ub-EKL assay as described previously (U.S. Pat. No. 8,680,139). A portion of the immunoprecipitated USP7 is separated on 10% SDS-PAGE and immunoblotted with anti-USP7 antibody to detect the level of USP7 protein (shown at the top of graphs in FIG. 5A and FIG. 5B). […] Jurkat cells were exposed to compound 5 for 2 hours and the compounds were washed away followed by incubation for various time points. Cells were harvested, lysed and their USP7 immunoprecipitated and washed with buffer. […] Jurkat cells were incubated with an exemplary compound of the present invention (e.g., compound 5), washed, and incubated for an additional 0-96 h. USP7 was immuno-precipitated from lysates and USP7 activity measured. […] Total cell deubiquitinase activity can be performed to determine selectivity of these compounds (FIG. 5C). These experiments delineate a simple, powerful biomarker for determining the dose-efficacy relationship in the pre-clinical/clinical evaluation of irreversible USP7 inhibitors. Inhibitors were also tested in cells for effects on various PD markers, including three major USP7 substrates, DNMT1, UHRF1 and HDM2 .

A further data set deals with DNMT1, UHRF1 and HDM2. Kind of data set: Immunoblot of USP7 substrates DNMT1, UHRF1 and HDM2 in Jurkat cells. The class given is cell-based. The following applies: 24 h treatment, immunoblot (FIG. 6). The procedure:
FIG. 6 graphically illustrates a decrease in USP7 oncogenic substrates DNMT1, UHRF1 and HDM2 levels in Jurkat cells treated with the USP7i compound 5. 20 μg total cell lysates from each samples were separated on 10% SDS-PAGE and immunoblotted with antibodies against DNMT1, UHRF1, HDM2 and Actin (loading control).
Jurkat cells were incubated with an exemplary compound of the present invention (e.g., compound 5), washed, and incubated for an additional 0-96 h. USP7 was immuno-precipitated from lysates and USP7 activity measured. […] Total cell deubiquitinase activity can be performed to determine selectivity of these compounds (FIG. 5C). These experiments delineate a simple, powerful biomarker for determining the dose-efficacy relationship in the pre-clinical/clinical evaluation of irreversible USP7 inhibitors. Inhibitors were also tested in cells for effects on various PD markers, including three major USP7 substrates, DNMT1, UHRF1 and HDM2 .
Background: In western blotting, separated proteins are transferred to a membrane and probed.

“Also recorded” adds a separate entry of the source.

Chain of USP7core C223A (Q93009 214-521 C223A limits assumed): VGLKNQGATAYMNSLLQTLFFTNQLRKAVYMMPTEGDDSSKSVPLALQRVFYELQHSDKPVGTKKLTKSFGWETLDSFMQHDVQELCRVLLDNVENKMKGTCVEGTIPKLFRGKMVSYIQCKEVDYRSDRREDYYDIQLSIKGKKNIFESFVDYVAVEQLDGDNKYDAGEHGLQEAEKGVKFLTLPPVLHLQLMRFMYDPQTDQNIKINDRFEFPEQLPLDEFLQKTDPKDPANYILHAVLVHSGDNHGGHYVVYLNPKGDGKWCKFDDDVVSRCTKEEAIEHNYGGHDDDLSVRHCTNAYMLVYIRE
T1 sequence (Q93009 214-521 limits assumed): as the sequence (Q93009 214-521 C223A limits assumed) above, with A10C counted along it

Consider ipilimumab, for which, in data set [1], the “patients who experienced immune-related adverse effects” value is 64%.

Consider `CS(=O)(=O)c1cccc(NC(=O)c2cc([N+](=O)[O-])c(Sc3c(Cl)cncc3Cl)s2)c1` [compound 5, 5-[(3,5-dichloropyridin-4-yl)sulfanyl]-N-[3-(methylsulfonyl)phenyl]-4-nitrothiophene-2-carboxamide], for which the “covalent adduct formation with wild type USP7 core” value on USP7core WT is reported as “covalent irreversible adduct formation; also recorded: formed a covalent adduct”. For the same compound, the “covalent adduct formation with active site mutant USP7 core C223A” value at USP7core C223A is “not in the active site cysteine mutant enzyme; also recorded: failed to form an adduct”. Further, the “USP7 catalytic activity returned” value at USP7 (48 hours after washout) was “about 55%”. Besides, at USP7 (72 hours after washout), the “USP7 catalytic activity returned” value is recorded as 68%. The “inhibition of USP7 activity after pulse treatment” value at USP7 (Jurkat cells, 10 μM for 2 h, up to 72 h (FIG. 5B)) is on record as “prolonged inhibition of USP7 activity, even after 72 h”. Further, in the data set on DNMT1, UHRF1 and HDM2, the DNMT1 level entry was “decrease”, the HDM2 level result is “decrease” and the UHRF1 level entry was “decrease”.

Source of the values: patent publication US10292973B2, “Covalent irreversible inhibitors of USP7 as anti-cancer agents” (PROGENRA, INC., priority 2015, dated 2019).
